In patent US12441746B2, “HCK inhibitors for the treatment of fibrosis and cancer” (Icahn School of Medicine at Mount Sinai, priority 2020, dated 2025):
Read-outs that look alike come from different tables or passages of the source.

Experiments:
Cytotoxicity = type: cell-based; details: at 50 uM (data not shown)
HCK kinase = target: T1, HCK kinase (Homo sapiens, UniProt P08631); experiment: HCK activity inhibition, radioactive kinase assay (Reaction Biology Corp); type: biochemical
T1 construct: purchased Reaction Biology Corp
Description: HCK activity inhibition efficiency for the inhibitors. Inhibiting efficiency is performed in Reaction Biology with Corp P32 radioactive kinase assay, comparing compounds of the invention with dasatinib for HCK, Bcr-Abl and other binding kinases identified in the reference. Briefly, HCK kinase was delivered into the substrate solution and gently mixed, then compounds in DMSO were added into the kinase reaction mixture by Acoustic technology (Echo550; Nano liter range), and incubated for 20 minutes at room temperature. 33P-ATP was delivered into the reaction mixture to initiate the reaction. The kinase reaction was incubated for 2 hours at room temperature. Reactions were spotted onto P81 ion exchange paper, and detected kinase activity was measured by filter-binding method.

[1] = test system: SMAD3 transcriptional activity in HEK293 cells; experiment: SMAD3 transcriptional activity in HEK293 cells; type: cell-based
murine UUO model = experiment: Murine unilateral ureteral obstruction (UUO) kidney fibrosis model; type: in vivo, Male C57BL/6 mice; details: 25 mg/kg by gavage daily, 7-days post-UUO
Description: Inhibiting Hck activity in vivo with Example 2 attenuates kidney fibrosis in murine UUO model: Unilateral ureteral obstruction (UUO) was performed on Male C57BL/6 mice (˜10 weeks age). Mice were perfused 7-days post UUO. The inhibitory activity of the compounds of the invention as compared to controls was determined. The UUO mice were treated with Example 2 at 25 mg/kg or vehicle (n=5) by gavage daily started one day prior to the surgery to 7-days post-surgery. […] Compounds of the invention are promising HCK-specific inhibitors.
FIG. 1 depicts mRNA—levels of pro-fibrotic markers at 7-days post-UUO by RT-PCR (normalized to GAPDH), from whole cortices of control and UUO kidneys of Example 2 and PBS-fed animals. […] Values are mean±SEM. *P<0.05.

Src-family kinase (SFK) = experiment: Inhibition of all Src-family kinase (SFK) activity; type: biochemical; details: FIG. 3
HK2 cells = experiment: mRNA expression of fibrosis markers in HK2 cells; type: cell-based
[2] = compared with vehicle-treated mice

T1 sequence (P08631 whole entry): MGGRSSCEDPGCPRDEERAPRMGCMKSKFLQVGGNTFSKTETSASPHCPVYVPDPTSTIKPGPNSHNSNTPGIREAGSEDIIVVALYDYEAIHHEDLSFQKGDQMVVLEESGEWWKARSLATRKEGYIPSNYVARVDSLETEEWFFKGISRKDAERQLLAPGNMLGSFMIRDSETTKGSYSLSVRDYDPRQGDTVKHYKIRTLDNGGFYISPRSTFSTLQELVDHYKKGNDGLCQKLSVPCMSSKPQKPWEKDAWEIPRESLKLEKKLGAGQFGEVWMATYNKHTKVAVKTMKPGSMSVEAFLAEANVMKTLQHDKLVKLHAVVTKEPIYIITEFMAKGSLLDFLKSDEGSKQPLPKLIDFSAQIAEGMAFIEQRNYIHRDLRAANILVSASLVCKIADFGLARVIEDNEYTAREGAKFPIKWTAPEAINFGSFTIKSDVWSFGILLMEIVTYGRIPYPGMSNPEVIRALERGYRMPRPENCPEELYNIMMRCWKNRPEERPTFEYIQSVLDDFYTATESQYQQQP

Q: Which cytotoxicity (Cytotoxicity) does the source give for Clc1cc(Cl)c2c(c1)C=C(C1=NOB(c3ccccc3)N1)C(c1ccccc1)O2 (centres unmarked) [Example 2, 3-(6,8-dichloro-2-phenyl-2H-chromen-3-yl)-5-phenyl-4,5-dihydro-1,2,4,5-oxadiazaborole] here?
A: no cytotoxicity

Q: And the IC50 (HCK kinase; HCK, read-out: IC50)?
A: < 20 µM

Q: And the IC50 (HCK kinase; radioactive kinase assay, 33P-ATP, 2 hours at room temperature, read-out: IC50 for HCK activity)?
A: ~12 µM

Q: And the SMAD3 transcriptional activity [1]?
A: reduced

Q: And the “renal fibrosis in the UUO kidneys (Masson and collagen I staining)” value (murine UUO model)?
A: reduced renal fibrosis

Q: And the “RTEC injury in the UUO kidney (H&E staining)” value (murine UUO model; compared to vehicle-treated mice)?
A: reduced RTEC injury

Q: And the “expression of Col1a1 in the UUO kidney” value (murine UUO model; [2])?
A: significantly decreased

Q: What about the “expression of FSP-1 in the UUO kidney” value (murine UUO model; [2]) of the same compound?
A: significantly decreased

Q: And the “expression of Fibronectin in the UUO kidney” value (murine UUO model; [2])?
A: significantly decreased

Q: And the “selectivity among Src-family kinases” value (Src-family kinase (SFK))?
A: selectivity to HCK inhibition

Q: What about the “mRNA expression of fibrosis markers” value (HK2 cells; FIG. 4) of the same compound?
A: reduced

Q: What about the “mRNA expression of COL1A1” value (HK2 cells; HK2 cells) of the same compound?
A: reduced

Q: And the “mRNA expression of FN1” value (HK2 cells; HK2 cells)?
A: reduced

Q: And the “mRNA expression of SNAIL” value (HK2 cells; HK2 cells)?
A: reduced
